Assay [1] has as its system keratinocyte proliferation. Kind of assay: 3H-Thymidine incorporation / keratinocyte proliferation (Example 1A). The class given is cell-based, human. The settings on record: […]10^-7 to […]10^-9 M; vs ethanol control and retinol treatments.
Assay [2] deals with keratinocyte differentiation (TGase 1). Kind of assay: Transglutaminase (TGase 1) ELISA, keratinocyte differentiation (Example 4). The class given is cell-based, human. The settings on record: used alone; Table 4. The protocol:
(§1) Human keratinocytes, isolated from neonatal foreskin by trypsin treatment were grown in Dulbecco Modification Eagle (DME) Hams F12 (1:1) medium/10% fetal calf serum in the presence of irradiated 3T3 mouse fibroblasts for establishing dividing keratinocyte colonies. Cells were grown under the above condition until their second passage and kept frozen for future use. Frozen second passage keratinocytes were thawed and plated into the above medium and grown for five days before they were switched to a serum-free MCDB 153-based medium keratinocyte growth medium (KGM) from Clonetics Corporation, San Diego, Calif., containing 0.15 mM Ca, or keratinocyte serum-free media (KSFM) from GIBCO containing 0.09 mM Ca). On day 7, when the cells were 80-90% confluent, they were trypsinized and plated in the serum-free medium for the various experiments.
During the process of terminal differentiation in the epidermis, a 15 nm thick layer of protein, known as the cornified envelope (CE) is formed on the inner surface of the cell periphery. The CE is composed of numerous distinct proteins which have been cross-linked together by the formation of N ^ε -(γ-glutamyl) lysine isodipeptide bonds catalyzed by the action of at least two different transglutaminases (TGases) expressed in the epidermis. TGase 1 is expressed in abundance in the differentiated layers of the epidermis, especially the granular layer, but is absent in the undifferentiated basal epidermis. […]
Keratinocytes (cultured as described above) were plated in 96 well plates at a density of 3,000 cells per well in […] of cell culture media. […] The absorbance of samples was read at 492 nm in the plate reader. […] Transglutaminase I levels were determined by subtracted background from the readings from each treatment and determining the mean s.d. for the replicates exposed to both antibodies.
(§2) The level of TGase-1 detected after treatment of the cells could be influenced by cell number, i.e., the greater the number of cells the greater the level of TGase-1 detected. […]

For assay [3] the test system is unchanged. Kind of assay: Transglutaminase (TGase 1) ELISA normalized to DNA, keratinocyte differentiation (Example 1B). The class given is cell-based, human. The settings on record: […]10^-7 to […]10^-9 M; vs ethanol control. The method, then: as §1, with “experiments. […]” for “experiments.”
Keratinocytes (cultured as described above) were plated in 96 well plates at a density of 3,000 cells per well in 200 μl media. […] The absorbance of samples was read at 492 nm in the plate reader. […] TGase levels were determined by subtracting background from the readings from each treatment and determining mean±s.d. for the replicates exposed to both Ab.
as §2

Another assay relates to ARAT. Kind of assay: In vitro microsomal esterification of retinol, ARAT catalyzed (retinyl palmitate formation). The following applies: Table 2, 1 hour, 37° C.
A further assay addresses T1, LRAT (Bos taurus, UniProt Q9BGL2).
T1 construct: microsomal fraction isolated from bovine retinal pigment epithelial cells; from tissue; host or cells: microsomes of bovine retinal pigment epithelial cells (method cited: Saari and Bredberg, J. Biol. Chem. 1988)
T1 sequence (Q9BGL2 1-230): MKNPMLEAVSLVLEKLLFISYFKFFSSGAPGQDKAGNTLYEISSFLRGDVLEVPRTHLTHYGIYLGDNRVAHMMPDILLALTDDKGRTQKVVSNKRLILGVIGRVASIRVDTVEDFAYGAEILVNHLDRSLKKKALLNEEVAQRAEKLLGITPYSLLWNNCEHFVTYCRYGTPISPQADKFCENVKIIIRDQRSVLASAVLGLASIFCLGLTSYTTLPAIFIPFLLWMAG
Kind of assay: In vitro microsomal esterification of retinol, LRAT catalyzed (retinyl laurate formation). The settings on record: Table 2, 1 hour, 37° C. It is filed as biochemical, bovine.

These results are taken from patent publication US5738858A, “Skin care compositions containing fatty hydroxyethyl imidazoline surfactants and retinol or retinyl ester” (priority 1996, dated 1998).

Description for ARAT: (§3) A solution containing 0.1M sodium phosphate pH 7 buffer, 5 mM dithiothreitol, 2 mg/ml bovine serum albumin, 40 micromolar palmitoyl CoA, 40 micromolar dilauroyl phosphatidyl choline, 10 micromolar retinol and a test compound or solvent blank, was incubated for 1 hour at 37° C. with a microsomal fraction isolated from bovine retinal pigment epithelial cells. After incubation, the reaction was quenched by addition of an equal volume of ethanol, and the retinyl esters formed (retinyl palmitate from the ARAT catalyzed reaction, and retinyl laurate from the LRAT catalyzed reaction) were extracted with hexane.
Description for LRAT: as §3

For the compound `CC1=C(/C=C/C(C)=C/C=C/C(C)=C/C(=O)O)C(C)(C)CCC1` [RA, retinoic acid], the “keratinocyte proliferation (in words)” value in assay [1] was “significantly increased keratinocyte proliferation over both the ethanol control and each of the 2.5×10^-7 M, 2.5×10^-8 M and 2.5×10^-9 M retinol treatments and they did so in a dose dependant manner”. Besides, in assay [2], the “keratinocyte differentiation (in words)” value is recorded as “substantially decreased keratinocyte differentiation”.
With `CC1=C(/C=C/C(C)=C/C=C/C(C)=C/CO)C(C)(C)CCC1` [ROH, retinol], the “keratinocyte differentiation / transglutaminase level (in words)” value in assay [3] is reported as “The decrease in transglutaminase level was dose dependent”. In addition, in assay [2], the “keratinocyte differentiation (in words)” value is reported as “did not affect keratinocyte differentiation when used alone”.
Consider `CCCCCCCCCCCCCCCC(=O)OC/C=C(C)/C=C/C=C(C)/C=C/C1=C(C)CCCC1(C)C` [RP, retinyl palmitate], for which the “keratinocyte differentiation (in words)” value in assay [2] is on record as “did not affect keratinocyte differentiation when used alone”.
On to `Nc1ncnc2nc[nH]c12` [adenine], for which the “% INHIB. ARAT” value in the assay on ARAT (100 μM) was found to be 0%.
For `O=C1C(N(CO)C(=O)NCO)N(CO)C(=O)N1CO` (stereo not shown) [diazolidinyl urea], the “% INHIB. LRAT” value on LRAT (0 μM as printed) worked out at 0%. Besides, the “% INHIB. ARAT” value with ARAT (0 μM as printed) was 0%.
For the compound `CCCCCCCCCCCC(=O)N(C)CC(=O)O` [lauroyl sarcosine], the “% INHIB. ARAT” value with ARAT (100 μM) came to 20%.
For `CCCCCCCC/C=C\CCCCCCCC(=O)NCCC[N+](C)(C)CC(=O)[O-]` [oleamidopropyl betaine], the “% INHIB. LRAT” value on LRAT (100 μM) is given as 0%.
Consider `Cc1ncc(C[n+]2csc(CCO)c2C)c(N)n1` [thiamine], for which the “% INHIB. ARAT” value in the assay on ARAT (100 μM) is on record as 0%.
As for `N[C@@H](Cc1c[nH]c2ccccc12)C(=O)O` [tryptophan], the “% INHIB. ARAT” value with ARAT (100 μM) amounted to 0%.
Same read-out and setting: to `O=c1cc[nH]c(=O)[nH]1` [uracil] belongs 0%.
